Patent US10201623B2, “HSP90-targeted cardiac imaging and therapy” (Memorial Sloan-Kettering Cancer Center, priority 2013, dated 2019)

Key:
Hsp90 = test: saturation binding of 131I-PU-H71 in prostate cancer cell lines; settings: several prostate cancer cell lines
heart muscle = test: 124I-PUH71 PET-CT cardiac imaging in patients; assay type: in vivo, human
Experimental: Exemplary Procedure Using ^124I-PUH71 (Compound A) The day before the administration of ^124I-PUH71, potassium iodide was administered to the subject to be imaged to minimize the amount of radioactivity in the thyroid. A dose of KI was administered before ^124I-PUH71 was injected in the vein of the arm of the subject through a catheter. A subject was typically administered one tracer-dose of ^124I-PUH71 5% ethanol and 0.9% NaCl, which is < 1/500th of the NOAEL limit derived from rodents using the cold PUH71. A dose of up to 5.5 mCi of ^124I-PUH71 were administered intravenously. ^124I-PUH71 scans were performed immediately, at 3-4 hours, 20-24 hours, and 48-72 hours after injection of the radiotracer. A 30-45 minute scanning time-period is typical for clinical PET studies. Image was acquired on a PET-CT scanner. A low-dose CT was obtained immediately prior to PET imaging; the 0-hour CT is applied to the three PET datasets rapidly-acquired during the first 30 minutes post-injection. Uptake of the PUH71 by heart muscle in 12 patients are illustrated in FIG. 2. The cardiac uptake is plotted on the y-axis, expressed in terms of the standardized uptake value (SUV), here using the SUV mean parameter. The time after injection is plotted on the x-axis, in minutes. Data shown here is from PET scans obtained 0, 10, 20 and ˜180 minutes after tracer injection. […] In 1 patient, the cardiac uptake was less distinct, but the PET imaging methodology was suboptimal compared to the other studies. […] EKG-synchronization, or ‘EKG-gating’, is standard practice in cardiac imaging, for improving the quality of heart-imaging, and it is expected that results will further improve after EKG gating is added. Without intention to be limited by theory, the bits of variation in the SUV could be due to (1) the lack of EKG-gating and (2) the lack of proper attenuation correction. […] The EKG-gating and attenuation correction techniques are standard practice in cardiac nuclear imaging art.

[1] = system: MDA-MB-468 human breast cancer tumors; test: micro PET of 124I-PUH71 in mice bearing MDA-MB-468 tumors; assay type: in vivo
Experimental: FIG. 4: [^124I]-PUH71 PET in mice bearing a xenografted tumor. a) Representative PET scan of [^124I]-PUH71 in MDA-MB-468 tumor-bearing mice. Location of the tumor is indicated by a red arrow. […] Representative data is shown.
We injected mice bearing MDA-MB-468 human breast cancer tumors with trace amounts of ^124I-PUH71, and imaged with the micro PET at 1, 4 and 24 hours post injection. […] The results are illustrated in FIG. 4.

[2] = stability of 124I-PUH71 in formulation; assay type: physicochemical; settings: formulated in 5% ethanol in saline (0.9%)
Source text: ^124I-PUH71 was produced in formulation. The radioactive half-life is 4.2 days.

[3] = patients, single iv tracer injection, PET-CT

CC(C)NCCCn1c(Sc2cc3c(cc2[131I])OCO3)nc2c(N)ncnc21 [^131I-PUH71]
selectivity of binding to Hsp90 (Hsp90): bound, selectively
Bmax (Hsp90; saturable binding): 3 to 7 million sites, per cell

CC(C)NCCCn1c(Sc2cc3c(cc2I)OCO3)nc2c(N)ncnc21 [Compound A]
patients whose heart musculature demonstrated visually-distinct uptake (heart muscle; PET scans 0, 10, 20 and ~180 minutes after tracer injection, no EKG-gating): 11 out of 12
clearance from the bloodstream (heart muscle; human): rapid clearance
absorption and retention in the human heart (heart muscle; human heart): rapid absorption and sustained retention
persistence of visually-distinct cardiac uptake (heart muscle; [3]): 3 to 4 h
time after injection at which uptake in the heart is maximized (heart muscle; [3]): less than 10 minutes
time for which cardiac signal intensity is maintained (heart muscle; [3]): ≥ 3 h

CC(C)NCCCn1c(Sc2cc3c(cc2[124I])OCO3)nc2c(N)ncnc21 [^124I-PUH71]
clearance from the healthy heart ([1]; MDA-MB-468 tumor-bearing mice, heart and blood pool similar profile): rapid clearance
uptake in the heart (PET) ([1]; MDA-MB-468 tumor-bearing mice, no cardiac disease expected): no distinct uptake
retention in tumors ([1]; micro PET at 1, 4 and 24 hours post injection): retained in tumors even at 24 h p.i.
route of clearance of excess radioligand ([1]; tumor-bearing mice): cleared via the liver and GI tract
stability in formulation [2]: stable, in formulation, for several days
